In patent US10201586B2 (dated 2019):
*1 amine or outer side, *2 acyl side, *3 side chain or, on linkers, in order; H or OH if unused. Where a SMILES comes first, the peptide text is derived from it. Bridges are numbered along the chain shown (N, C = ends). [ ]: non-standard residue; d: D form. The star is where a group is joined. ξ: configuration not given here. Succinimide(1-Et,3-yl) = CCN1C(=O)CC(*)C1=O; Bta = N[C@@H](Cc1csc2ccccc12)C(=O)O; Cysteamide = C(CS[*:3])N[*:1]; Tle = CC(C)(C)[C@H](N)C(=O)O; β3hL = CC(C)C[C@H](N)CC(=O)O; β3hK = NCCCC[C@H](N)CC(=O)O; hCys = N[C@@H](CCS)C(=O)O; Nle = CCCC[C@H](N)C(=O)O; ξβ3hV = CC(C)C(N)CC(=O)O; Aib = CC(C)(N)C(=O)O

What was measured:
[1] = plasma stability in human plasma; format: in vitro ADME; conditions: for remaining at 24 h: 24 hour incubation in human plasma, quantitative ELISA
[2] = target: T1, TFPI (Homo sapiens, UniProt P10646); assay: IC50 Mean (nM]
Target sequence in this assay (P10646 29-304 limits assumed): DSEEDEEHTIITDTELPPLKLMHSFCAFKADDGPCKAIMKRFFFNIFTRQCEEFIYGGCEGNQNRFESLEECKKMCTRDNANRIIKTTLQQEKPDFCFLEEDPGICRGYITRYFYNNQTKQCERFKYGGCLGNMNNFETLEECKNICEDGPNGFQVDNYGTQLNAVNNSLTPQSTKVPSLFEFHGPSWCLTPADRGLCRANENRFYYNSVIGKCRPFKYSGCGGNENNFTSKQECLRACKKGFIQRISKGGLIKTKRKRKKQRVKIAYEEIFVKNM

[3] = target: T1, TFPI; assay: % Inhibition @ 2.5µM
[4] = target: T1, TFPI; assay: Extrinsic Tenase Inhibition assay | % Inhibition @ 2.5µM
[5] = target: T1, TFPI; assay: IC50 [nm]
Target sequence in this assay (P10646 29-304 limits assumed): as above

[6] = target: Tissue Factor Pathway Inhibitor (TFPI) (Homo sapiens, UniProt P10646); assay: IC50 ELISA | IC50 [nM]
Tissue Factor Pathway Inhibitor (TFPI), sequence (P10646 29-304 limits assumed): as above

CC(=O)N[C@@H](Cc1ccccc1)C(=O)N[C@@H](CCC(N)=O)C(=O)N[C@@H](CO)C(=O)N[C@@H](CCCCN)C(=O)N1CCC[C@@H]1C(=O)N[C@@H](CC(N)=O)C(=O)N[C@H](C(=O)N[C@@H](Cc1cnc[nH]1)C(=O)N[C@H](C(=O)N1CCC[C@H]1C(=O)NCC(=O)N[C@@H](Cc1ccc(O)cc1)C(=O)N[C@@H](Cc1ccccc1)C(=O)N[C@@H](CCC(=O)O)C(=O)N[C@@H](CCCNC(=N)N)C(=O)N[C@@H](CC(C)C)C(=O)NC(C)(C)C(=O)N[C@@H](C)C(=O)N[C@@H](CCCCN)C(=O)N[C@@H](CC(C)C)C(N)=O)C(C)C)C(C)C [JBT2432]
remaining at 24 h [1]: 76%

CC(=O)N[C@@H](Cc1ccccc1)C(=O)N[C@@H](CCC(N)=O)C(=O)N[C@@H](CO)C(=O)N[C@@H](CCCCN)C(=O)NCC(=O)N[C@@H](CC(N)=O)C(=O)N[C@H](C(=O)N[C@@H](Cc1ccccc1)C(=O)N[C@H](C(=O)N[C@@H](Cc1ccccc1)C(=O)NCC(=O)N[C@@H](Cc1ccc(O)cc1)C(=O)N[C@@H](Cc1ccccc1)C(=O)N[C@@H](CCC(=O)O)C(=O)N[C@@H](CCCNC(=N)N)C(=O)N[C@@H](CC(C)C)C(=O)N[C@@H](CCCNC(=N)N)C(=O)N[C@@H](C)C(=O)N[C@@H](CCCCN)CC(=O)N[C@@H](CC(C)C)C(N)=O)C(C)C)C(C)C [JBT0533 | 424] (Ac-FQSKGNVFVFGYFERLRA[β3hK]L-NH2)
IC50 [2]: 756 nM

Ac-SGYASFPLAVQLHVSKASKEMALARLYYKTS-NH2 (SEQ ID NO: 2137) [JBT0676]
% Inhibition @ […] [3]: 0%
Extrinsic Tenase Inhibition assay | % Inhibition @ […] [4]: 1%

CCCC[C@H](NC(=O)CNC(=O)[C@H](CO)NC(=O)[C@H](Cc1ccccc1)NC(=O)[C@H](Cc1c[nH]c2ccccc12)NC(=O)[C@H](CCCCN)NC(=O)[C@H](Cc1ccc(O)cc1)NC(=O)[C@H](CCCNC(=N)N)NC(=O)[C@H](CO)NC(C)=O)C(=O)N[C@@H](CCCNC(=N)N)C(=O)N[C@@H](CC(=O)O)C(=O)N[C@@H](CCCC)C(=O)N[C@@H](CCCCN)C(=O)NCC(=O)N[C@H](C(=O)N[C@@H](CCCC)C(=O)N[C@@H](CO)C(=O)N[C@@H](CO)C(=O)N[C@H](C(=O)N[C@@H](Cc1c[nH]c2ccccc12)C(=O)N[C@H](C(=O)N[C@@H](CCCCN)C(=O)N[C@@H](Cc1ccccc1)C(N)=O)C(C)C)C(C)C)[C@@H](C)O [JBT0418 | 1210, Ac-SRYKWF SG-Nle-RD-Nle-KGT-Nle-SS VWVKF-NH2] (Ac-SRYKWFSG[Nle]RD[Nle]KGT[Nle]SSVWVKF-NH2)
IC50 [5]: 43900 nM

CC(=O)N[C@@H](Cc1ccccc1)C(=O)N[C@@H](CCC(N)=O)C(=O)N[C@@H](CO)C(=O)N[C@@H](CCCCN)C(=O)N1CCC[C@@H]1C(=O)N[C@@H](CC(N)=O)C(=O)N[C@H](C(=O)N[C@@H](Cc1cnc[nH]1)C(=O)N[C@H](C(=O)N[C@@H](CC(=O)O)C(=O)NCC(=O)N[C@@H](Cc1ccc(O)cc1)C(=O)N[C@@H](Cc1ccccc1)C(=O)N[C@@H](CCC(=O)O)C(=O)N[C@@H](CCCNC(=N)N)C(=O)N[C@@H](CC(C)C)C(=O)NC(C)(C)C(=O)N[C@@H](C)C(=O)N[C@@H](CCCCN)C(=O)N[C@@H](CC(C)C)C(N)=O)C(C)(C)C)C(C)C [JBT2431] (Ac-FQSK[dP]NVH[Tle]DGYFERL[Aib]AKL-NH2)
remaining at 24 h [1]: 82%

CC(=O)N[C@@H](Cc1ccccc1)C(=O)N[C@@H](CCC(N)=O)C(=O)N[C@@H](CO)C(=O)N[C@@H](CCCCN)C(=O)N1CCC[C@@H]1C(=O)N[C@@H](CC(N)=O)C(=O)N[C@H](C(=O)N[C@@H](Cc1c[nH]cn1)C(=O)N[C@H](C(=O)N1CCC[C@H]1C(=O)N[C@@H]1CSSCC[C@@H](C(=O)N[C@@H](CCCNC(=N)N)C(=O)N[C@@H](CC(C)C)C(=O)NC(C)(C)C(=O)N[C@@H](C)C(=O)N[C@@H](CCCCN)C(=O)N[C@@H](CC(C)C)C(N)=O)NC(=O)[C@H](Cc2csc3ccccc23)NC(=O)[C@H](Cc2ccc(O)cc2)NC1=O)C(C)C)C(C)C [JBT2518 | 4233, Ac-FQSKpNVHVPcY-Bta--Hcy-RL-Aib-AKL-NH2] (Ac-FQSK[dP]NVHVP[dC]Y[Bta][hCys]RL[Aib]AKL-NH2; disulfide 11-14)
IC50 [6]: 10.8 nM

CC(=O)N[C@@H](Cc1ccccc1)C(=O)N[C@@H](CCC(N)=O)C(=O)N[C@@H](CO)C(=O)N[C@@H](CCCCN)C(=O)N1CCC[C@@H]1C(=O)N[C@@H](CC(N)=O)C(=O)N[C@H](C(=O)N[C@@H](Cc1c[nH]cn1)C(=O)N[C@H](C(=O)N1CCC[C@H]1C(=O)N[C@H](C)C(=O)N[C@@H](Cc1ccc(O)cc1)C(=O)N[C@@H](Cc1csc2ccccc12)C(=O)N[C@@H](CCC(=O)O)C(=O)N[C@@H](CCCNC(=N)N)C(=O)N[C@@H](CC(C)C)C(=O)NC(C)(C)C(=O)N[C@@H]1CSSCCNC(=O)[C@H](CC(C)C)NC(=O)[C@H](CCCCN)NC1=O)C(C)C)C(C)C [JBT2517 | 4232, Ac-FQSKpNVHVPaY-Bta-ERL-Aib-cKL-Cea-] (Ac-FQSK[dP]NVHVP[dA]Y[Bta]ERL[Aib][dC]KL-Cysteamide; disulfide 18-C)
IC50 [6]: 269 nM

CCN1C(=O)CC(SC[C@H](NC(=O)[C@H]2CCCN2C(=O)[C@H](CCCCN)NC(=O)[C@H](CO)NC(=O)[C@H](CCC(N)=O)NC(=O)[C@H](Cc2ccccc2)NC(C)=O)C(=O)N[C@H](C(=O)N[C@@H](Cc2c[nH]cn2)C(=O)N[C@H](C(=O)N[C@@H](CC(=O)O)C(=O)N[C@H](C)C(=O)N[C@@H](Cc2ccc(O)cc2)C(=O)N[C@@H](Cc2csc3ccccc23)C(=O)N[C@@H](CCC(=O)O)C(=O)N[C@@H](CCCNC(=N)N)C(=O)N[C@@H](CC(C)C)C(=O)NC(C)(C)C(=O)N[C@@H](C)C(=O)N[C@@H](CCCCN)C(=O)N[C@@H](CC(C)C)C(N)=O)C(C)(C)C)C(C)C)C1=O (stereo partly drawn) [JBT2502 | 4217, Ac-FQSKp-C(NEM)-VH-Tle-DaY-Bta-ERL-Aib-AKL-NH2] (Ac-FQSK[dP]C(Succinimide(1-Et,3-yl))VH[Tle]D[dA]Y[Bta]ERL[Aib]AKL-NH2)
IC50 [6]: 4.1 nM

Ac-SGYASFPLAVQLHVSARSKEMALARLYYKTS-NH2 (SEQ ID NO: 2136) [JBT0675]
% Inhibition @ […] [3]: 0%
Extrinsic Tenase Inhibition assay | % Inhibition @ […] [4]: 7%

Ac-SGYASFPLAVQLHVSKRSKEMALARAYYKTS-NH2 (SEQ ID NO: 2021) [JBT0685]
% Inhibition @ […] [3]: 4%
Extrinsic Tenase Inhibition assay | % Inhibition @ […] [4]: 1%

CC(=O)N[C@@H](Cc1ccccc1)C(=O)N[C@@H](CCC(N)=O)C(=O)N[C@@H](CO)C(=O)N[C@@H](CCCCN)C(=O)NCC(=O)N[C@@H](CC(N)=O)C(=O)NC(CC(=O)N[C@@H](Cc1ccccc1)C(=O)N[C@H](C(=O)N[C@@H](Cc1ccccc1)C(=O)NCC(=O)N[C@@H](Cc1ccc(O)cc1)C(=O)N[C@@H](Cc1ccccc1)C(=O)N[C@@H](CCC(=O)O)C(=O)N[C@@H](CCCNC(=N)N)C(=O)N[C@@H](CC(C)C)C(=O)N[C@@H](CCCNC(=N)N)C(=O)N[C@@H](C)C(=O)N[C@@H](CCCCN)C(=O)N[C@@H](CC(C)C)C(N)=O)C(C)C)C(C)C (stereo partly drawn) [JBT0521 | 756] (Ac-FQSKGN[ξβ3hV]FVFGYFERLRAKL-NH2)
IC50 [2]: > 5000 nM

Ac-SGYASFPLAVQLHVSKRAKEMALARLYYKTS-NH2 (SEQ ID NO: 2009) [JBT0677]
% Inhibition @ […] [3]: 4%
Extrinsic Tenase Inhibition assay | % Inhibition @ […] [4]: 2%

CC(=O)N[C@@H](Cc1ccccc1)C(=O)N[C@@H](CCC(N)=O)C(=O)N[C@@H](CO)C(=O)N[C@@H](CCCCN)C(=O)NCC(=O)N[C@@H](CC(N)=O)C(=O)N[C@H](C(=O)N[C@@H](Cc1ccccc1)C(=O)N[C@H](C(=O)N[C@@H](Cc1ccccc1)C(=O)NCC(=O)N[C@@H](Cc1ccc(O)cc1)C(=O)N[C@@H](Cc1ccccc1)C(=O)N[C@@H](CCC(=O)O)C(=O)N[C@@H](CCCNC(=N)N)C(=O)N[C@@H](CC(C)C)C(=O)N[C@@H](CCCNC(=N)N)C(=O)N[C@@H](C)C(=O)N[C@@H](CCCCN)C(=O)N[C@H](CC(N)=O)CC(C)C)C(C)C)C(C)C [JBT0534 | 204] (Ac-FQSKGNVFVFGYFERLRAK[β3hL]-NH2)
IC50 [2]: 84 nM

CC(=O)N[C@@H](Cc1ccccc1)C(=O)N[C@@H](CCC(N)=O)C(=O)N[C@@H](CO)C(=O)N[C@@H](CCCCN)C(=O)NCC(=O)N[C@@H](CC(N)=O)C(=O)N[C@H](C(=O)N[C@@H](Cc1ccccc1)C(=O)NC(CC(=O)N[C@@H](Cc1ccccc1)C(=O)NCC(=O)N[C@@H](Cc1ccc(O)cc1)C(=O)N[C@@H](Cc1ccccc1)C(=O)N[C@@H](CCC(=O)O)C(=O)N[C@@H](CCCNC(=N)N)C(=O)N[C@@H](CC(C)C)C(=O)N[C@@H](CCCNC(=N)N)C(=O)N[C@@H](C)C(=O)N[C@@H](CCCCN)C(=O)N[C@@H](CC(C)C)C(N)=O)C(C)C)C(C)C (stereo partly drawn) [JBT0523 | 757] (Ac-FQSKGNVF[ξβ3hV]FGYFERLRAKL-NH2)
IC50 [2]: > 5000 nM

CC(=O)N[C@@H](Cc1ccccc1)C(=O)N[C@@H](CCC(N)=O)C(=O)N[C@@H](CO)C(=O)N[C@@H](CCCCN)C(=O)N(C)CC(=O)N[C@@H](CC(N)=O)C(=O)N[C@H](C(=O)N[C@@H](Cc1ccccc1)C(=O)N[C@H](C(=O)N[C@@H](CC(=O)O)C(=O)NCC(=O)N[C@@H](Cc1ccc(O)cc1)C(=O)N[C@@H](Cc1ccccc1)C(=O)N[C@@H](CCC(=O)O)C(=O)N[C@@H](CCCNC(=N)N)C(=O)N[C@@H](CC(C)C)C(=O)NC(C)(C)C(=O)N[C@@H](C)C(=O)N[C@@H](CCCCN)C(=O)N[C@@H](CC(C)C)C(N)=O)C(C)C)C(C)C [JBT1584]
Plasma Stability (half life in minutes) human ([1]; human plasma): >2 h

Ac-SGYASFPLAVQLHVSKRSKEMALARLAYKTS-NH2 (SEQ ID NO: 2140) [JBT0686]
% Inhibition @ […] [3]: 3%
Extrinsic Tenase Inhibition assay | % Inhibition @ […] [4]: 1%
